Source: patent US8907076B2, “Mycobacterial peptide deformylase” (Council of Scientific and Industrial Research, priority 2006, dated 2014)

Experiments:
E. coli = assay: Growth of E. coli culture with antisense PS-ODN (colony forming units); assay type: cell-based, Escherichia coli; settings: 10 μM PS-ODN, Lauria-Bertani medium; colony forming units vs untreated
Method: Further, to ensure that PS-ODN1 permeabilized within the M. smegmatis cells, PS-ODN1 were conjugated with 3′Flourescein label and used for the treatment of mycobacterial culture (˜1×10^5 cells of M. smegmatis were incubated with 10 μM PS-ODNs in 3 ml 7H9 Middlebrook broth supplemented with 10% ADC and grown at 37° C./200 rpm for 24 hrs). […] Since PS-ODN1 was mycobacteria specific, in E. coli where this insertion sequence is absent, when culture was treated with 10 μM PS-ODN1 had no effect on its growth. (FIG. 7, right panel).

endogenous PDF protein = assay type: cell-based, Mycobacterium smegmatis
[1] = system: Mycobacterium smegmatis strain mc^2155; assay: Growth profile of M. smegmatis culture with antisense PS-ODNs (OD600 and colony forming units); settings: 10 μM PS-ODN, 24 h, 7H9 Middlebrook broth

## PS-ODN1: 5′ phosphothiorate modified antisense oligodeoxyribonucleotide spanning bases 219-249 of M. tuberculosis def (insertion region); probably SEQ ID NO: 14 (antisense CGGATTGATGACCACACCGCGTCGGCGGGCGGTCAT; DNA, backbone and methylation of C not given here; phosphorothioate modified at 5'; listed as Mycobacterium tuberculosis)
E. coli
  effect on growth profile of E. coli: no effect
Endogenous PDF protein
  level of expression of endogenous PDF protein compared to untreated control: significant reduction
[1]
  decrease in growth of M. smegmatis compared to the untreated culture: five-fold decrease
